Values of other authors, collected in patent US7402323B2, “Compositions and methods for treating skin conditions” (AkPharma, Inc., priority 2002, dated 2008).

How the values were obtained:
stratum corneum = details: normal thickness 14 cells
[1] = test system: cultured neurons and astrocytes; details: compared with control cultures or with cultures supplemented with calcium or glycerophosphate alone

stratum corneum thickness after treatment (stratum corneum)	solubility in water	SMILES	number of cells in supplemented cultures [1]
5 cells	–	CC1=C(/C=C/C(C)=C/C=C/C(C)=C/C(=O)O)C(C)(C)CCC1 [Retinoic acid]	–
–	highly soluble	O=P([O-])([O-])OCC(O)CO.[Ca+2] (stereo not drawn) [calcium glycerophosphate, 1,2,3-propanetriol, mono(dihydrogen phosphate) calcium salt (1:1)]	more cells
